Counter-ions that a name gives are not always drawn. Like-named read-outs stand apart in the source and are kept apart here.
Tests used:
hβ2 adrenergic receptor = hβ2 adrenergic receptor (Homo sapiens (Human), UniProt P07550); test: Assay for determining adrenergic receptor agonist potency (cAMP Flashplate, HEK-293 cells); assay type: cell-based; details: data rounded to nearest 1 nM
Protocol: The cell monolayer was lifted with 2 mM EDTA in PBS. Cells were pelleted by centrifugation at 1,000 rpm, and cell pellets were either stored frozen at −80° C. or membranes were prepared immediately for use. cAMP assays were performed in a radioimmunoassay format using the Flashplate Adenylyl Cyclase Activation Assay System with [^125I]-cAMP (NEN SMP004, PerkinElmer Life Sciences Inc., Boston, Mass.), according to the manufacturers instructions. […] Cells were rinsed with PBS and detached in dPBS (Dulbecco's Phosphate Buffered Saline, without CaCl2 and MgCl2) containing 2 mM EDTA or Trypsin-EDTA solution (0.05% trypsin/0.53 mM EDTA). After counting cells in Coulter cell counter, cells were pelleted by centrifugation at 1,000 rpm and re-suspended in stimulation buffer containing TBMX (PerkinElmer Kit) pre-warmed to room temperature to a concentration of 1.6×10^6 to 2.8×10^6 cells/mL. About 40,000 to 80,000 cells per well were used in this assay. […] Reactions were incubated for 10 min at 37° C. and stopped by adding 100 μL of cold detection buffer containing [^125I]-cAMP (NEN SMP004, PerkinElmer Life Sciences, Boston, Mass.). […] Data were analyzed by nonlinear regression analysis with the GraphPad Prism Software package (GraphPad Software, Inc., San Diego, Calif.) with the sigmoidal equation. The Cheng-Prusoff equation (Cheng Y, and Prusoff W H., Biochemical Pharmacology, 1973, 22, 23, 3099-108) was used to calculate the EC50 values.

hM3 muscarinic receptor = hM3 muscarinic receptor (Homo sapiens (Human), UniProt P20309); test: Radioligand binding assay for muscarinic receptors ([3H]-NMS displacement, CHO cell membranes)
Chain of hM3 muscarinic receptor (P20309 whole entry): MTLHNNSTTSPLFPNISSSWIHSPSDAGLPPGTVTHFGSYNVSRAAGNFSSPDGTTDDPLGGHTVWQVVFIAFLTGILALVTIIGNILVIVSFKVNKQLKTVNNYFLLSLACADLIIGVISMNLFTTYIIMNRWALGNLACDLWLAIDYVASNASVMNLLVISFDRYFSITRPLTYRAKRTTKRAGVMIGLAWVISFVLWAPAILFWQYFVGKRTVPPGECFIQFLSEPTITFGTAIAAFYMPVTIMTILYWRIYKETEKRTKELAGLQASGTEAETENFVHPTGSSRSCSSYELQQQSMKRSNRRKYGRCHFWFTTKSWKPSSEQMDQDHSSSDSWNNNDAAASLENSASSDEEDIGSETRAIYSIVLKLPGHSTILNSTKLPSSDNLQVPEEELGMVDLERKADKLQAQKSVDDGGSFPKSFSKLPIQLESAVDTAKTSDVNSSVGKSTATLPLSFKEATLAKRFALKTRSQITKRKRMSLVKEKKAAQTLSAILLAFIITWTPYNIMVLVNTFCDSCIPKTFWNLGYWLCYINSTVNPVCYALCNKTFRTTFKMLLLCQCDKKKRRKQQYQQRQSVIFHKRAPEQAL
Protocol: The cells were grown in a 5% CO2, 37° C. incubator and lifted with 2 mM EDTA in dPBS. Cells were collected by 5 minute centrifugation at 650×g, and cell pellets were either stored frozen at −80° C. or membranes were prepared immediately for use. For membrane preparation, cell pellets were resuspended in lysis buffer and homogenized with a Polytron PT-2100 tissue disrupter (Kinematica AG; 20 seconds×2 bursts). Crude membranes were centrifuged at 40,000×g for 15 minutes at 4° C. The membrane pellet was then resuspended with re-suspension buffer and homogenized again with the Polytron tissue disrupter. The protein concentration of the membrane suspension was determined by the method described in Lowry et al., 1951, […], 193, 265. All membranes were stored frozen in aliquots at −80° C. or used immediately. […] The membranes were briefly homogenized using a Polytron tissue disruptor (10 seconds) prior to assay plate addition. […] The test compounds were initially dissolved to a concentration of 400 μM in dilution buffer and then serially diluted 5× with dilution buffer to final concentrations ranging from 10 μM to […]. The order of addition and volumes added to the assay plates were as follows: 25 μL radioligand, 25 μL diluted test compound, and 50 μL membranes. Assay plates were incubated for 6 hours at 37° C. […] Filter plates were rinsed three times with wash buffer (10 mM HEPES) to remove unbound radioactivity. The plates were then air-dried and 50 μL Microscint-20 liquid scintillation fluid (PerkinElmer, Inc.) were added to each well. The plates were then counted in a PerkinElmer Topcount liquid scintillation counter (PerkinElmer, Inc.). Binding data were analyzed by nonlinear regression analysis with the GraphPad Prism Software package (GraphPad Software, Inc., San Diego, Calif.) using the one-site competition model. […] These summary statistics were then converted back to K; values for data reporting.

[1] = tested on: MCh-induced bronchoconstriction; test: Einthoven assay: bronchoprotection against methacholine (MCh)-induced bronchoconstriction; assay type: in vivo, rat; details: for inhibition in vivo at 0.1 mg: inhaled or nasal, read-out: Broncho. at 24 h
Protocol: This assay measures the ability of a test compound to provide bronchoprotection against methacholine (MCh)-induced bronchoconstriction in a rat. Male Sprague-Dawley rats (Harlan, Indianapolis, Ind.), weighing between 200 g and 350 g, were used for all studies. Test compound or vehicle (sterile deionized water) were dosed by inhalation (1H) over a 10 min period in a pie shaped inhalation chamber (R+S Molds, San Carlos, Calif.) using 5 mL of dosing solution. […] Rats were dosed with 100 μg of test compound unless otherwise indicated. At predetermined time points, rats were anesthetized with an intraperitoneal (IP) injection of 120 mg/kg inactin (thiobutabarbital). A supplemental dose (40 mg/kg, IP) was administered if the animal responded to physical stimuli (e.g. toe pinch). The surgical site was shaved and a 1-2 cm midline incision of the ventral aspect of the neck was made. The jugular vein was isolated and cannulated with a saline-filled polyethylene catheter (PE-50) to allow IV infusion of MCh. Trachea was dissected free and cannulated with a 14G needle (#NE-014, Small Parts, Miami Lakes, Fla.). After placement of the tracheal cannula, each rat was ventilated using a respirator (Model 683, Harvard Apparatus, Inc., MA) set at a stroke volume of 1 mL/100 g body weight (but not exceeding 2.5 mL volume) and a rate of 90 strokes per minute. A T-connector was placed along the respirator expiratory tubing to allow for measurement of changes in ventilation pressure (VP) using a Biopac transducer that was connected to a Biopac […]) pre-amplifier. Body temperature was maintained at 37° C. using a heating pad. Changes in VP were recorded using the Acknowledge Data Collection Software (Santa Barbara, Calif.). Baseline values were collected for at least 2.5 min. Rats were then challenged with non-cumulative intravenous (IV) infusions of 40 and 80 μg/kg MCh. MCh was infused intravenously for 2.5 minutes from a syringe pump (sp210iw, World Precision Instruments, Inc., Sarasota, Fla.) at a rate of 2 mL/kg/min, with a 2 minute interval between the two doses of MCh. Changes in ventilation pressure (cm H2O) in treated animals are expressed as % inhibition of MCh response relative to control animals. Other bronchoconstrictors, such as histamine and acetylcholine, can be used in place of MCh in this assay. Additionally, guinea pigs can be used instead of rats. […] Inhibition greater than or equal to 30 percent at 24 h is indicative of a long duration of action.

[2] = rat, 100 μg by inhalation, 24 h after administration
[3] = hM3 Muscarinic Receptor Binding, data rounded to nearest 0.1 nM

Chain of hβ2 adrenergic receptor (P07550 whole entry): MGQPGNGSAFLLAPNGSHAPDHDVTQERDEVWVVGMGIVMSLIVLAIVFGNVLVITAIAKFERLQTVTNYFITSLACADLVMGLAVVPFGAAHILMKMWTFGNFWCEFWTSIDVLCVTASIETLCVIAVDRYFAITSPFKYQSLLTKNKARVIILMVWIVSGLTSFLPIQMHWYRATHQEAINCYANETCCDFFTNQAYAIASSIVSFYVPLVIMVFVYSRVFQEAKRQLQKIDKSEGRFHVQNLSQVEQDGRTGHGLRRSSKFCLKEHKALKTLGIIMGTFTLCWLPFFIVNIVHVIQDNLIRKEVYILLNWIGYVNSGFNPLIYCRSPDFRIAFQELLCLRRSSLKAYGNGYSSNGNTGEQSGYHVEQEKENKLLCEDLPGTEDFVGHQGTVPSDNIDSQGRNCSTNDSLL

Cc1cc(NC(=O)CCCCN(C)C(=O)CCN2CCC(OC(=O)Nc3ccccc3-c3ccccc3)CC2)c(C)cc1CNC[C@H](O)c1ccc(O)c2[nH]c(=O)ccc12 [Compound I-18, Biphenyl-2-ylcarbamic Acid 1-(2-{[4-(4-{[(R)-2-Hydroxy-2-(8-hydroxy-2-oxo-1,2-dihydroquinolin-5-yl)ethylamino]methyl}-2,5-dimethylphenylcarbamoyl)butyl]methylcarbamoyl}ethyl)piperidin-4-yl Ester Ditrifluoroacetic Acid Salt] was tested, and the EC50 (hβ2 adrenergic receptor) was 1 nM, the Ki (hM3 muscarinic receptor) was 0.1 nM and the inhibition in vivo at 0.1 mg ([1]; Rattus norvegicus, 24 h) was > 30%.

COc1cc(NC(=O)CCCCN(C)C(=O)CCN2CCC(OC(=O)Nc3ccccc3-c3ccccc3)CC2)c(Cl)cc1CNC[C@H](O)c1ccc(O)c2[nH]c(=O)ccc12 [Compound I-19] was tested, and the EC50 (hβ2 adrenergic receptor) was 1 nM, the Ki (hM3 muscarinic receptor) was 0.1 nM and the inhibition in vivo at 0.1 mg [1, 2] was > 30%.

In the case of CN(CCCCC(=O)Nc1cccc(CCNC[C@H](O)c2ccc(O)c3[nH]c(=O)ccc23)c1)C(=O)CCN1CCC(OC(=O)Nc2ccccc2-c2ccccc2)CC1 [Compound I-20], the EC50 (hβ2 adrenergic receptor) is reported as 1 nM, the Ki (hM3 muscarinic receptor) is reported as 0.1 nM and the inhibition in vivo at 0.1 mg [1, 2] is reported as > 30%.

CN(CCCCC(=O)Nc1ccc(CCNC[C@H](O)c2ccc(O)c3[nH]c(=O)ccc23)cc1)C(=O)CCN1CCC(OC(=O)Nc2ccccc2-c2ccccc2)CC1 [Compound I-21] was tested, and the EC50 (hβ2 adrenergic receptor) was 1 nM, the Ki (hM3 muscarinic receptor) was 0.1 nM and the inhibition in vivo at 0.1 mg [1, 2] was > 30%.

CC(Cc1cccc(CC(=O)NCCCCN(C)C(=O)CCN2CCC(OC(=O)Nc3ccccc3-c3ccccc3)CC2)c1)NC[C@H](O)c1ccc(O)c2[nH]c(=O)ccc12 (stereo partly drawn) [Compound I-22] was tested, and the EC50 (hβ2 adrenergic receptor) was 1 nM, the Ki (hM3 muscarinic receptor) was 0.1 nM and the inhibition in vivo at 0.1 mg [1, 2] was > 30%.

For C[C@H](Cc1cccc(CC(=O)NCCCCN(C)C(=O)CCN2CCC(OC(=O)Nc3ccccc3-c3ccccc3)CC2)c1)NC[C@H](O)c1ccc(O)c2[nH]c(=O)ccc12 [Compound I-23], the EC50 (hβ2 adrenergic receptor) was 1 nM, the Ki (hM3 muscarinic receptor) was 0.1 nM and the inhibition in vivo at 0.1 mg [1, 2] was > 30%.

For C[C@@H](Cc1cccc(CC(=O)NCCCCN(C)C(=O)CCN2CCC(OC(=O)Nc3ccccc3-c3ccccc3)CC2)c1)NC[C@H](O)c1ccc(O)c2[nH]c(=O)ccc12 [Compound I-24], the EC50 (hβ2 adrenergic receptor) was 1 nM, the Ki (hM3 muscarinic receptor) was 0.1 nM and the inhibition in vivo at 0.1 mg [1, 2] was > 30%.

With Cc1ccc(C(=O)Nc2ccc(CNC[C@H](O)c3ccc(O)c4[nH]c(=O)ccc34)cc2)cc1N(C)C(=O)CCN1CCC(OC(=O)Nc2ccccc2-c2ccccc2)CC1 [Compound I-26] the EC50 (hβ2 adrenergic receptor) was 1 nM, the Ki (hM3 muscarinic receptor) was 0.2 nM and the inhibition in vivo at 0.1 mg [1, 2] was > 30%.

Cc1cc(CNC[C@H](O)c2ccc(O)c3[nH]c(=O)ccc23)ccc1NC(=O)c1cccc(N(C)C(=O)CCN2CCC(OC(=O)Nc3ccccc3-c3ccccc3)CC2)c1 [Compound I-27] was tested, and the EC50 (hβ2 adrenergic receptor) was 1 nM, the Ki (hM3 muscarinic receptor) was 0.1 nM and the “Broncho. at 24 h” value [1, 2] was “No”.

In the case of Cc1cc(CNC[C@H](O)c2ccc(O)c3[nH]c(=O)ccc23)ccc1NC(=O)c1ccc(C)c(N(C)C(=O)CCN2CCC(OC(=O)Nc3ccccc3-c3ccccc3)CC2)c1 [Compound I-28], the EC50 (hβ2 adrenergic receptor) is reported as 1 nM, the Ki (hM3 muscarinic receptor) is reported as 0.2 nM and the “Broncho. at 24 h” value [1, 2] is reported as “No”.

In the case of COc1cc(CNC[C@H](O)c2ccc(O)c3[nH]c(=O)ccc23)ccc1NC(=O)c1cccc(N(C)C(=O)CCN2CCC(OC(=O)Nc3ccccc3-c3ccccc3)CC2)c1 [Compound I-29], the EC50 (hβ2 adrenergic receptor) is reported as 1 nM, the Ki (hM3 muscarinic receptor; [3]) is reported as 0.1 nM and the “Broncho. at 24 h” value [1, 2] is reported as “No”.

For Cc1cc(NC(=O)c2cccc(N(C)C(=O)CCN3CCC(OC(=O)Nc4ccccc4-c4ccccc4)CC3)c2)c(C)cc1CNC[C@H](O)c1ccc(O)c2[nH]c(=O)ccc12 [Compound I-30], the EC50 (hβ2 adrenergic receptor) was 1 nM, the Ki (hM3 muscarinic receptor) was 0.2 nM and the “Broncho. at 24 h” value [1, 2] was “No”.

In the case of COc1cc(NC(=O)c2cccc(N(C)C(=O)CCN3CCC(OC(=O)Nc4ccccc4-c4ccccc4)CC3)c2)c(Cl)cc1CNC[C@H](O)c1ccc(O)c2[nH]c(=O)ccc12 [Compound I-31], the EC50 (hβ2 adrenergic receptor) is reported as 1 nM, the Ki (hM3 muscarinic receptor; [3]) is reported as 0.2 nM and the inhibition in vivo at 0.1 mg [1, 2] is reported as > 30%.

In the case of CN(C(=O)CCN1CCC(OC(=O)Nc2ccccc2-c2ccccc2)CC1)c1cccc(C(=O)Nc2cccc(CCNC[C@H](O)c3ccc(O)c4[nH]c(=O)ccc34)c2)c1 [Compound I-32], the EC50 (hβ2 adrenergic receptor) is reported as 1 nM, the Ki (hM3 muscarinic receptor) is reported as 0.1 nM and the “Broncho. at 24 h” value [1, 2] is reported as “No”.

In the case of Cc1ccc(C(=O)Nc2cccc(CCNC[C@H](O)c3ccc(O)c4[nH]c(=O)ccc34)c2)cc1N(C)C(=O)CCN1CCC(OC(=O)Nc2ccccc2-c2ccccc2)CC1 [Compound I-33], the EC50 (hβ2 adrenergic receptor) is reported as 1 nM, the Ki (hM3 muscarinic receptor) is reported as 0.2 nM and the “Broncho. at 24 h” value [1, 2] is reported as “No”.

With CC(Cc1cccc(NC(=O)c2cccc(N(C)C(=O)CCN3CCC(OC(=O)Nc4ccccc4-c4ccccc4)CC3)c2)c1)NC[C@H](O)c1ccc(O)c2[nH]c(=O)ccc12 (stereo partly drawn) [Compound I-36] the EC50 (hβ2 adrenergic receptor) was 1 nM, the Ki (hM3 muscarinic receptor) was 0.2 nM and the inhibition in vivo at 0.1 mg [1, 2] was > 30%.

With Cc1ccc(C(=O)Nc2cccc(CC(C)NC[C@H](O)c3ccc(O)c4[nH]c(=O)ccc34)c2)cc1N(C)C(=O)CCN1CCC(OC(=O)Nc2ccccc2-c2ccccc2)CC1 (stereo partly drawn) [Compound I-37] the EC50 (hβ2 adrenergic receptor) was 1 nM, the Ki (hM3 muscarinic receptor) was 0.2 nM and the “Broncho. at 24 h” value [1, 2] was “No”.

In the case of C[C@H](Cc1cccc(NC(=O)c2cccc(N(C)C(=O)CCN3CCC(OC(=O)Nc4ccccc4-c4ccccc4)CC3)c2)c1)NC[C@H](O)c1ccc(O)c2[nH]c(=O)ccc12 [Compound I-38], the EC50 (hβ2 adrenergic receptor) is reported as 1 nM, the Ki (hM3 muscarinic receptor) is reported as 0.2 nM and the “Broncho. at 24 h” value [1, 2] is reported as “No”.

C[C@@H](Cc1cccc(NC(=O)c2cccc(N(C)C(=O)CCN3CCC(OC(=O)Nc4ccccc4-c4ccccc4)CC3)c2)c1)NC[C@H](O)c1ccc(O)c2[nH]c(=O)ccc12 [Compound I-39] was tested, and the EC50 (hβ2 adrenergic receptor) was 1 nM, the Ki (hM3 muscarinic receptor) was 0.2 nM and the “Broncho. at 24 h” value [1, 2] was “No”.

Cc1ccc(C(=O)Nc2ccc(CC(C)NC[C@H](O)c3ccc(O)c4[nH]c(=O)ccc34)cc2)cc1N(C)C(=O)CCN1CCC(OC(=O)Nc2ccccc2-c2ccccc2)CC1 (stereo partly drawn) [Compound I-41] was tested, and the EC50 (hβ2 adrenergic receptor) was 1 nM, the Ki (hM3 muscarinic receptor; [3]) was 0.3 nM and the “Broncho. at 24 h” value [1, 2] was “No”.

CC(Cc1cccc(CNC(=O)c2cccc(N(C)C(=O)CCN3CCC(OC(=O)Nc4ccccc4-c4ccccc4)CC3)c2)c1)NC[C@H](O)c1ccc(O)c2[nH]c(=O)ccc12 (stereo partly drawn) [Compound I-44] was tested, and the EC50 (hβ2 adrenergic receptor) was 1 nM, the Ki (hM3 muscarinic receptor) was 0.1 nM and the “Broncho. at 24 h” value [1, 2] was “No”.
